Consider 1 compound from patent publication US20040219202A1, “Pharmaceutical composition comprising lipids comprising a polar and a nonpolar moiety” (priority 2001, published 2004).

Common to all, as to type: cell-based
One assay relates to Panc-1 cells. The assay is described as follows: Transfection of Panc-1 cells with LMDs (liposome:mu:DNA), β-galactosidase reporter assay. As to conditions: LMDs composed entirely of DOTAP or DOTAP-analogue liposomes, FIG. 19. As for the experimental part: (§1) Purity of the lipids was checked by TLC or HPLC. All lipids were stored as stock solutions in anhydrous CH2Cl2, at concentrations of either 5 mg/ml or 10 mg/ml, at −80° C., under Ar. In order to prepare cationic liposomes, lipids were added to a round-bottomed flask, via syringe, under Ar, and further freshly distilled CH2Cl2 was added, if necessary, to give a concentration of around 2.5 mg/ml. Then, 4 mM HEPES pH 7.0 (1 ml) was added, and the biphasic system was swirled to mix. A liposomal suspension was created by removing the organic solvent under reduced pressure at 25° C., followed by sonication for 2-5 min. in a water bath sonicator. Doubly-distilled water was added, if necessary, to return the total volume to 1 ml. All liposomal solutions were prepared at a final concentration of 5 mg/ml. The pH of the liposomal suspension was checked by pH Boy (Camlab Ltd., Over, Cambridgeshire, UK) and adjusted to pH 7.0±0.1 with concentrated aqueous solutions of HCl and NaOH.
(§2) Liposomes were extruded (Extruder, Northern Upids, Inc., Vancouver, BC, Canada) by passing through two 100 nm polycarbonate filters (Isopore™ Membrane Filters, Millipore (UK) Ltd., Watford, Hertfordshire, UK) ten times. For each preparation, the size distribution of liposomes was measured by photon correlation spectroscopy (PCS) (Coulter® N4 Plus Submicron Particle Sizer, Beckman Coulter, High Wycombe, Buckinghamshire, UK). For phospholipid-containing liposomes, phospholipid concentrations were checked by the Stewart assay.^23 In each case, a final lipid concentration of 4.7±0.1 mg/ml was observed. For non-phospholipid containing liposomes, lipid loss was also inevitable on extrusion. For all fast-extruding liposomal suspensions, total lipid concentration was assumed to be 4.7 mg/ml. For slower extrusions, total lipid concentrations were assumed to be 4.3 mg/ml. Very slowly extruding liposomes were extruded three times only and assumed to be 4.7 mg/ml.
(§3) Plasmid DNA containing the β-galactosidase gene (pNGVL1-nt-beta-gal; 7.53 kbp) was stored as frozen aliquots at −80° C., at a concentration of 1.2 mg/ml; μ (mu) peptide (adenoviral core peptide [H2N-Met-Arg-Arg-Ala-His-His-Arg-Arg-Arg-Arg-Ala-Ser-His-Arg-Arg-Met-Arg-Gly-Gly-CO2H]) was synthesised as described previously,^7 and maintained at 4° C. in aliquots of 1 mg/ml. Mu-DNA complexes were made by adding plasmid DNA to mu in 4 mM HEPES at a ratio of 1:0.6 (w/w) with fast vortexing. LMDs were prepared by complexing mu-DNA particles with cationic liposomes (as prepared above) in a ratio of 1:12 (w/w), such that all LMDs for all formulations were substantially cationic. For each preparation, the size distribution of LMDs was measured by PCS.
Panc-1 cells were maintained in RPMI/10% FCS/1% penicillin-streptomycin (Gibco™, Invitrogen Corporation, Paisley, Scotland, UK) at 37° C./5% CO2 in a humidified atmosphere. Twenty-four hours prior to transfection, 30 000 cells per well were seeded in 48 well microtitre plates (Corning Costar, Merck Ltd., Lutterworth, Leicestershire, UK) in 500 μl medium. As a control, plasmid DNA (0.5 μg in 200 μl medium) was added to a well. As a positive control, 1.5 μl Transfast™ (Promega Corporation, Madison, Wis., USA; prepared according to the supplier's protocol) in 200 μl medium was complexed with plasmid DNA (0.5 μg) and added to a well. 5 μl (0.5 μg DNA) of LMD formulation was added to each well. All experiments were performed in quadruplicate. The plate was swirled for 30 s, and incubated for 1 h at 37° C. Medium was then removed, and 500 μl of fresh medium was added. The cells were incubated at 37° C. for a further 24 h.
Medium was aspirated from the wells and the cell layer was washed with phosphate buffered saline (PBS) (Gibco™). The cells of each well were lysed in 150 μl lysis reagent (prepared according to the supplier's protocol; β-Gal Reporter Gene Assay, Roche Diagnostics GmbH, D-68305 Mannheim, Germany) at room temperature for 30 min. […]
For orientation: Reporter assays use an easily measured gene product as a stand-in for the process of interest.

The subject of the next assay is COS-7 cells. The assay is described as follows: Transfection of COS-7 cells with LMDs (liposome:mu:DNA), β-galactosidase reporter assay. To be noted: LMDs of pure DOTAP or DOTAP-analogue liposomes, FIG. 20. On the procedure:
as §1, §2, §3
COS-7 cells were maintained in DMEM/10% FCS/1% penicillin-streptomycin (Gibco™) at 37° C./5% CO2 in a humidified atmosphere. Twenty-four hours prior to transfection, 10 000 cells per well were seeded in 48-well microtitre plates (Coming Costar) in 500 μl medium. Plasmid DNA and Transfast™ controls were prepared as above. 5 μl (0.5 μg DNA) of LMD formulation was added to each well. All experiments were performed in quadruplicate. The plate was swirled for 30 s, and incubated for 1 h at 37° C. Medium was then removed, and 500 μl of fresh medium was added. The cells were incubated at 37° C. for a further 24 h.
Medium was aspirated from the wells and the cell layer was washed with phosphate buffered saline (PBS) (Gibco™). The cells of each well were lysed in 150 μl lysis reagent (prepared according to the supplier's protocol; β-Gal Reporter Gene Assay, Roche Diagnostics GmbH, D-68305 Mannheim, Germany) at room temperature for 30 min. After lysis, […], 50 μl and 20 μl, of each cell suspension were used for the determination of β-galactosidase activity and for the determination of total cellular protein (to normalise results), respectively.
In the β-gal assay, 100 μl of the substrate reagent was added to 50 μl of the cell suspension in a white 96-well microplate (Coming Costar). […]

The test system of a further assay is Panc-1 and COS-7 cells. In words: In vitro transfection of LMDs, overall statements without a single cell line. To be noted: cell line not stated or across Panc-1 and COS-7 cells. As for the experimental part:
as §1, with “The pH of the liposomal suspension was checked by pH Boy (Camlab Ltd., Over, Cambridgeshire, UK) and adjusted to pH 7.0±0.1 with concentrated aqueous solutions of HCl and NaOH.” left out
Liposomes were extruded (Extruder, Northern Upids, Inc., Vancouver, BC, Canada) by passing through two 100 nm polycarbonate filters (Isopore™ Membrane Filters, Millipore (UK) Ltd., Watford, Hertfordshire, UK) ten times. For each preparation, the size distribution of liposomes was measured by photon correlation spectroscopy (PCS) (Coulter® N4 Plus Submicron Particle Sizer, Beckman Coulter, High Wycombe, Buckinghamshire, UK). […]

“Also recorded” adds a separate entry of the source.

As to `CCCCCCCC/C=C\CCCCCCCC(=O)OCC(C[N+](C)(C)C)OC(=O)CCCCCCC/C=C\CCCCCCCC` (stereo not drawn) [DOTAP], the “Transfection (β-galactosidase activity)” value in the assay on Panc-1 cells was “transfect less well than the positive control Transfast”; in the assay with COS-7 cells it was “transfect similarly”. Further, the “In vitro transfection, overall statement” value in the assay with Panc-1 and COS-7 cells is “transfect worse than CDAN:DOPE, 1:1 liposomes; also recorded: generally poor”.
